Assay results: patent US20260250318A1, “COMPOSITIONS AND METHODS FOR CROSSING THE BLOOD BRAIN BARRIER” (VOYAGER THERAPEUTICS, INC., priority 2022, published 2026)

Tested on: brains, heart, liver, muscle, and DRG of the NHPs
Assay: Maturation of TTM-001 and TTM-002 capsids, NGS enrichment in NHP tissues
Type: in vivo
Text: This Example describes maturation of the AAV9 capsid variants, TTM-001 (SEQ ID NO: 981 (amino acid) and 983 (DNA), comprising SEQ ID NO: 941 (encoded by SEQ ID NO: 942)) and TTM-002 (SEQ ID NO: 982 (amino acid) and 984 (DNA), comprising SEQ ID NO: […] (encoded by SEQ ID NO: 944)) in NHPs to further enhance their transduction and biodistribution in the central nervous system as well as other tissues, and evolve the AAV capsid variants to provide further cross-species compatibility. Two approaches were used to mature the TTM-001 and TTM-002 capsid sequences in order to randomize and mutate within and around the peptide insert comprised within loop IV of the capsid variant. […] In the first maturation approach, sets of three contiguous amino acids were randomized across the mutagenesis region in the TTM-001 and TTM-002 sequences, which spanned from position 450 to position 466, numbered according to SEQ ID NO: 981 and 982. In the second maturation approach, mutagenic primers were used to introduce point mutations at a low frequency, scattered across the mutagenesis region in the TTM-001 and TTM-002 sequences ranging from position 449 to position 466, numbered according to SEQ ID NO: 981 and 982. AAV capsid variants arising from each maturation approach for TTM-001 and TTM-002 were pooled together, for subsequent testing and characterization in NHPs.
The library of pooled matured AAV capsid variants generated using the first maturation approach and the second maturation approach for the TTM-001 and TTM-002 AAV capsid variants were injected into two NHPs. […] Following RNA recovery and RT-PCR amplification, a systematic NGS enrichment analysis was performed to calculate the fold enrichment ratio relative to an AAV9 control, and the peptides comprised within the variants were identified.
Following the RNA recovery and NGS analysis from the second maturation approach, approximately 680,000 capsid variants were identified. The 680,000 matured capsid variants were then filtered based on samples with a raw virus count greater than 10 and a coefficient of variance (CV) of less than 1, which was calculated for each peptide across the brain samples taken from the two NHPs. […] Using this filtering criteria, this led to approximately 64,000 matured capsid variants.

[1] = NHP DRG, NGS, relative to AAV9 control
[2] = NHP brain, NGS, relative to AAV9 control
[3] = NHP heart, NGS, relative to AAV9 control
[4] = NHP liver DNA, NGS, relative to AAV9 control
[5] = NHP liver RNA, NGS, TTM-001 and TTM-002 matured AAV capsid variants, relative to AAV9 control
[6] = NHP muscle, NGS, relative to AAV9 control
[7] = NGS fold-enrichment, DRG, NHP, relative to AAV9
[8] = NGS fold-enrichment, brain, NHP, relative to AAV9
[9] = NGS fold-enrichment, heart, NHP, relative to AAV9
[10] = NGS fold-enrichment, liver DNA, NHP, relative to AAV9
[11] = NGS fold-enrichment, liver RNA, NHP, relative to AAV9
[12] = NGS fold-enrichment, muscle, NHP, relative to AAV9

| Sequence | Fold Enrichment relative to AAV9, DRG (NHP) [1] | Fold Enrichment relative to AAV9, Brain (NHP) [2] | Fold Enrichment relative to AAV9, Heart (NHP) [3] | Fold Enrichment relative to AAV9, Liver DNA (NHP) [4] | Fold Enrichment relative to AAV9, Liver RNA (NHP) [5] | Fold Enrichment relative to AAV9, Muscle (NHP) [6] | Fold Enrichment relative to AAV9, DRG (NHP) [7] | Fold Enrichment relative to AAV9, Brain (NHP) [8] | Fold Enrichment relative to AAV9, Heart (NHP) [9] | Fold Enrichment relative to AAV9, Liver DNA (NHP) [10] | Fold Enrichment relative to AAV9, Liver RNA (NHP) [11] | Fold Enrichment relative to AAV9, Muscle (NHP) [12] |
| --- | --- | --- | --- | --- | --- | --- | --- | --- | --- | --- | --- | --- |
| KTINGSGSPHCRVQNQQT | 0.000 fold | 0.000 fold | 0.000 fold | 1.203 fold | 31.043 fold | 0.000 fold |  |  |  |  |  |  |
| KTINGSGSPHFPFQNQQT |  |  |  |  |  |  | 0.000 fold | 0.000 fold | 0.000 fold | 3.715 fold | 10.322 fold | 0.000 fold |
| KTINGSGSPHFPWQNQQT | 0.000 fold | 0.000 fold | 0.000 fold | 1.731 fold | 53.587 fold | 0.000 fold |  |  |  |  |  |  |
| KTINGSGSPHFYRQNQQT | 0.000 fold | 0.000 fold | 0.000 fold | 9.342 fold | 31.724 fold | 0.000 fold |  |  |  |  |  |  |
| KTINGSGSPHGRYQNQQT |  |  |  |  |  |  | 0.000 fold | 0.000 fold | 0.000 fold | 0.778 fold | 10.028 fold | 0.000 fold |
| KTINGSGSPHIVWQNQQT | 0.000 fold | 0.000 fold | 0.000 fold | 6.056 fold | 58.021 fold | 0.000 fold |  |  |  |  |  |  |
| KTINGSGSPHKSGQNPQT |  |  |  |  |  |  | 0.000 fold | 0.000 fold | 0.000 fold | 11.790 fold | 11.014 fold | 0.000 fold |
| KTINGSGSPHLCTQNQQT | 0.000 fold | 0.000 fold | 0.000 fold | 2.489 fold | 11.176 fold | 0.000 fold |  |  |  |  |  |  |
| KTINGSGSPHLCVQNQQT | 0.000 fold | 0.000 fold | 0.000 fold | 1.428 fold | 19.030 fold | 0.000 fold |  |  |  |  |  |  |
| KTINGSGSPHLPTQNQQT | 0.000 fold | 0.000 fold | 0.000 fold | 3.127 fold | 20.704 fold | 0.000 fold |  |  |  |  |  |  |
| KTINGSGSPHLRWQNQQT | 0.000 fold | 0.000 fold | 0.000 fold | 9.649 fold | 21.014 fold | 0.000 fold |  |  |  |  |  |  |
| KTINGSGSPHLVYQNQQT | 0.000 fold | 0.000 fold | 0.000 fold | 1.045 fold | 14.196 fold | 0.000 fold |  |  |  |  |  |  |
| KTINGSGSPHMAFQNQQT | 0.000 fold | 0.000 fold | 0.000 fold | 0.542 fold | 17.644 fold | 0.000 fold |  |  |  |  |  |  |
| KTINGSGSPHPFVQNQQT | 0.000 fold | 0.000 fold | 0.000 fold | 1.286 fold | 12.091 fold | 0.000 fold |  |  |  |  |  |  |
| KTINGSGSPHPKRQNQQT | 0.000 fold | 0.000 fold | 0.000 fold | 2.355 fold | 23.055 fold | 0.000 fold |  |  |  |  |  |  |
| KTINGSGSPHPRKQNQQT | 0.000 fold | 0.000 fold | 0.000 fold | 3.248 fold | 12.249 fold | 0.000 fold |  |  |  |  |  |  |
| KTINGSGSPHPSCQNQQT | 0.000 fold | 0.000 fold | 0.000 fold | 2.790 fold | 27.796 fold | 0.000 fold |  |  |  |  |  |  |
| KTINGSGSPHQGCQNQQT | 0.000 fold | 0.000 fold | 0.000 fold | 1.037 fold | 17.676 fold | 0.000 fold |  |  |  |  |  |  |
| KTINGSGSPHRCCQNQQT | 0.000 fold | 0.000 fold | 0.000 fold | 2.213 fold | 19.084 fold | 0.000 fold |  |  |  |  |  |  |
| KTINGSGSPHRIKQNQQT | 0.000 fold | 0.000 fold | 0.000 fold | 3.064 fold | 21.720 fold | 0.000 fold |  |  |  |  |  |  |
| KTINGSGSPHRPWQNQQT | 0.000 fold | 0.000 fold | 0.000 fold | 4.936 fold | 16.869 fold | 0.000 fold |  |  |  |  |  |  |
| KTINGSGSPHRWLQNQQT | 0.000 fold | 0.000 fold | 0.000 fold | 6.882 fold | 28.147 fold | 0.000 fold |  |  |  |  |  |  |
| KTINGSGSPHRWTQNQQT | 0.000 fold | 0.000 fold | 0.000 fold | 0.844 fold | 12.490 fold | 0.000 fold |  |  |  |  |  |  |
| KTINGSGSPHSCHQNQQT | 0.000 fold | 0.000 fold | 0.000 fold | 8.562 fold | 56.242 fold | 0.000 fold |  |  |  |  |  |  |
| KTINGSGSPHSCPQNQQT | 0.000 fold | 0.000 fold | 0.000 fold | 1.776 fold | 16.701 fold | 0.000 fold |  |  |  |  |  |  |
